The source of these data is ChEMBL document CHEMBL3822440, “Semi-synthesis and antiproliferative evaluation of PEGylated pentacyclic triterpenes” (Eur J Med Chem, 2016).

The term IC50 denotes the concentration needed to halve the response being measured.

Molecules are shown by their SMILES. The source made the active and inactive calls. The rule behind the calls is not given here.

Test [1] concerns HT-29. The test is described as follows: Disruption of mitochondrial membrane potential in human HT-29 cells assessed as rhodamine123 positive cells at cytotoxic IC50 after 72 hrs by propidium iodide staining based fluorescence spectroscopic analysis (reference value: 94.25 +/- 0.35%). Format: functional.
Test [2] deals with HT-29. The test is described as follows: Cell cycle arrest in human HT-29 cells assessed as accumulation at S phase at cytotoxic IC50 after 72 hrs by propidium iodide staining based flow cytometry (reference value: 48.31 +/- 1.49%). The test is classed as functional.
A short description of test [3]: Cytotoxicity against mouse B16F10 cells assessed as growth inhibition after 72 hrs by MTT assay. Format: functional, cell-based. The note with it: B16-F10, 72 h. On the technique in general: Formazan colour is commonly taken as a measure of viable cells.
A short description of test [4]: Induction of apoptosis in mouse B16F10 cells assessed as late apoptotic cells at cytotoxic IC50 after 72 hrs by Annexin V-FITC/propidium iodide staining based flow cytometry (reference value: 0.75 +/- 0.21%). Format: functional, B16-F10. (A flow cytometer gives signals particle by particle.)
The test system of test [5] is HT-29. The test is described as follows: Induction of apoptosis in human HT-29 cells assessed as chromatin condensation at cytotoxic IC50 after 72 hrs by Hoechst staining based fluorescence microscopic analysis. Format: functional, cell-based.
The test system of test [6] is HepG2. The test can be described thus: Cell cycle arrest in human HepG2 cells assessed as accumulation at G0/G1 phase at cytotoxic IC50 after 72 hrs by propidium iodide staining based flow cytometry (reference value: 39.41 +/- 1.56%). The test is classed as functional.
In the next test the test system is B16-F10. The test is described as follows: Induction of apoptosis in mouse B16F10 cells assessed as cell shrinkage at cytotoxic IC50 after 72 hrs by Hoechst staining based fluorescence microscopic analysis. The test is classed as functional.
Test [7] deals with HepG2. The test is described as follows: Cytotoxicity against human HepG2 cells assessed as growth inhibition after 72 hrs by MTT assay. Format: functional, cell-based. The conditions noted are these: HepG2, 72 h.
Test [8] relates to HepG2. The test is described as follows: Induction of apoptosis in human HepG2 cells assessed as spherical cell shape at cytotoxic IC50 after 72 hrs by Hoechst staining based fluorescence microscopic analysis. The test is classed as functional.
Test [9] concerns HepG2. The test can be described thus: Induction of apoptosis in human HepG2 cells assessed as nucleus containing nicked DNA at cytotoxic IC50 after 72 hrs by Hoechst staining based fluorescence microscopic analysis. The test is classed as functional, cell-based.
Test [10] concerns HepG2. The test can be described thus: Induction of apoptosis in human HepG2 cells assessed as live cells at cytotoxic IC50 after 72 hrs by Annexin V-FITC/propidium iodide staining based flow cytometry (reference value: 99.55 +/- 0.07%). Format: functional.
The test system of test [11] is HepG2. The test can be described thus: Induction of apoptosis in human HepG2 cells assessed as late apoptotic cells at cytotoxic IC50 after 72 hrs by Annexin V-FITC/propidium iodide staining based flow cytometry relative to control. The test is classed as functional.
Test [12] relates to HepG2. The test is described as follows: Disruption of mitochondrial membrane potential in human HepG2 cells assessed as rhodamine123 negative cells at cytotoxic IC50 after 72 hrs by propidium iodide staining based fluorescence spectroscopic analysis (reference value: 11.7 +/- 6.8%). Format: functional.
In test [13] the test system is HT-29. The test is described as follows: Potency index, ratio of maslinic acid IC50 to compound IC50 for human HT-29 cells. The test is classed as functional.
Test [14] deals with HepG2. The test is described as follows: Potency index, ratio of maslinic acid IC50 to compound IC50 for human HepG2 cells. The test is classed as functional.
A short description of test [15]: Disruption of mitochondrial membrane potential in mouse B16F10 cells assessed as rhodamine123 negative cells at cytotoxic IC50 after 72 hrs by propidium iodide staining based fluorescence spectroscopic analysis (reference value: 4.45 +/- 0.64%). Format: functional, B16-F10.
The subject of test [16] is HepG2. The test can be described thus: Induction of apoptosis in human HepG2 cells assessed as bubble shaped region in cell surface at cytotoxic IC50 after 72 hrs by Hoechst staining based fluorescence microscopic analysis. Format: functional.
The subject of test [17] is HT-29. The test can be described thus: Induction of apoptosis in human HT-29 cells assessed as live cells at cytotoxic IC50 after 72 hrs by Annexin V-FITC/propidium iodide staining based flow cytometry (reference value: 96.65 +/- 0.78%). The test is classed as functional.
Test [18] can be described thus: Induction of apoptosis in mouse B16F10 cells assessed as necrotic cells at cytotoxic IC50 after 72 hrs by Annexin V-FITC/propidium iodide staining based flow cytometry (reference value: 0.75 +/- 0.07%). The test is classed as functional, B16-F10.

Turning to `COCCOCCOCC(=O)O[C@@H]1C[C@]2(C)[C@H]3CC=C4[C@@H]5CC(C)(C)CC[C@]5(C(=O)O)CC[C@@]4(C)[C@]3(C)CC[C@H]2C(C)(C)[C@H]1OC(=O)COCCOCCOC`, the Activity with HT-29 [1] was 94.3%; in the test with HT-29 [2], 4.97%; in test [4], 56.05%; in the test with HepG2 [6], 58.19%; with HepG2 [10], 55.7%; with HepG2 [11], 29.1%. Moreover, the Activity worked out at 43.2% in the test with HepG2 [12], 24.9% in test [15], 59.75% with HT-29 [17] and 0% in test [18]. Moreover, the IC50 stood at 48.4 µM in [3] and 59.9 µM in the test with HepG2 [7]. In addition, the result in the test on HT-29 [5], in the test with B16-F10, in the test on HepG2 [8], in the test on HepG2 [9] and in the test with HepG2 [16] was Active. The “Ratio IC50” value was 0.8 with HT-29 [13] and 1.7 with HepG2 [14].
With `CC1(C)CC[C@]2(C(=O)NCCCOCCOCCOCCCN)CC[C@]3(C)C(=CC[C@@H]4[C@@]5(C)C[C@@H](O)[C@H](O)C(C)(C)[C@@H]5CC[C@]43C)[C@@H]2C1`, the Activity in the test on HT-29 [1] came out at 63.1%; in the test on HT-29 [2] it was 7.12%; in test [4], 38.65%; with HepG2 [6], 40.22%; in the test on HepG2 [10], 19.75%; in the test with HepG2 [11], 33.05%. In addition, the Activity in the test on HepG2 [12] was determined as 40.85%; in test [15] it was 51.95%; in the test with HT-29 [17], 61%; in test [18], 0.2%. In addition, the IC50 was found to be 11.4 µM in [3] and 7.68 µM in the test with HepG2 [7]. Further, the result in the test with HT-29 [5], in the test on B16-F10, in the test on HepG2 [8], in the test on HepG2 [9] and in the test with HepG2 [16] was Active. For the same molecule, the “Ratio IC50” value stood at 2.7 in the test with HT-29 [13] and 12.9 with HepG2 [14].
